Test results as given in patent US4409210A, “Antibiotic compound” (priority 1982, dated 1983).
In brackets after ≈: the same amount, converted by molar mass.

Assays:
[1] = test system: Strain G393-B445; experiment: Antibiotic sensitivity, paper disc-agar diffusion method; format: cell-based, Empedobacter sp.; set-up: key: S (sensitive); R (resistant); I (intermediate); settings: nutrient agar, 2 day's incubation at 28° C., Difco discs, amount/disc per antibiotic
[2] = test system: S. aureus 209P; experiment: as above; format: cell-based; set-up: key: S (sensitive); R (resistant); I (intermediate); settings: nutrient agar, 2 day's incubation at 28° C., Difco discs, amount/disc per antibiotic
[3] = test system: Staphylococcus aureus A9601; experiment: MIC, serial two-fold dilution method (aerobic); format: cell-based; settings: Staphylococcus aureus A9601; Mueller-Hinton agar; inoculum 10^4; read-out: minimum inhibitory concentration (MIC)
[4] = test system: Staphylococcus aureus A9748; experiment: MIC, serial two-fold dilution method (aerobic); format: cell-based; settings: Staphylococcus aureus A9748; Mueller-Hinton agar; inoculum 10^4; read-out: minimum inhibitory concentration (MIC)
[5] = test system: Staphylococcus aureus A9856; experiment: MIC, serial two-fold dilution method (aerobic); format: cell-based; settings: Staphylococcus aureus A9856; Mueller-Hinton agar; inoculum 10^4; read-out: minimum inhibitory concentration (MIC)
[6] = test system: Staphylococcus aureus A20394; experiment: MIC, serial two-fold dilution method (aerobic); format: cell-based; settings: Staphylococcus aureus A20394; Mueller-Hinton agar; inoculum 10^4; read-out: minimum inhibitory concentration (MIC)
[7] = test system: Staphylococcus aureus A20701; experiment: MIC, serial two-fold dilution method (aerobic); format: cell-based; settings: Staphylococcus aureus A20701; Mueller-Hinton agar; inoculum 10^4; read-out: minimum inhibitory concentration (MIC)
[8] = test system: Streptococcus pneumoniae IID-Type-I; experiment: MIC, serial two-fold dilution method (aerobic); format: cell-based; settings: Streptococcus pneumoniae IID-Type-I; GC medium; inoculum 10^6 CFU/ml; read-out: minimum inhibitory concentration (MIC)
[9] = test system: Micrococcus flavus D-12; experiment: MIC, serial two-fold dilution method (aerobic); format: cell-based; settings: D12; Micrococcus flavus D-12; Mueller-Hinton agar; inoculum 10^4; read-out: minimum inhibitory concentration (MIC)
[10] = test system: Bacillus anthracis IID-115; experiment: microbe, parasite or virus in culture; format: cell-based; settings: Bacillus anthracis, IID115, read-out: minimum inhibitory concentration (MIC)
[11] = test system: Escherichia coli NIHJ; experiment: MIC, serial two-fold dilution method (aerobic); format: cell-based; settings: Escherichia coli NIHJ; Mueller-Hinton agar; inoculum 10^4; read-out: minimum inhibitory concentration (MIC)
[12] = test system: Neisseria meningitidis A20048; experiment: MIC, serial two-fold dilution method (aerobic); format: cell-based; settings: Neisseria meningitidis A20048; GC medium; inoculum 10^6 CFU/ml; read-out: minimum inhibitory concentration (MIC)
[13] = test system: Clostridium acidiurici A9560; experiment: MIC, serial two-fold dilution method (anaerobic); format: cell-based; settings: Gottschalkia acidurici; Clostridium acidiurici A9560; GAM agar medium; inoculum 10^7-10^8; read-out: minimum inhibitory concentration (MIC)
[14] = test system: Clostridium chauvoei A9561; experiment: MIC, serial two-fold dilution method (anaerobic); format: cell-based; settings: Clostridium chauvoei A9561; GAM agar medium; inoculum 10^7-10^8; read-out: minimum inhibitory concentration (MIC)
Protocol: (§1) The minimum inhibitory concentration (MIC) of Bu-2517 was determined for a variety of aerobic and anaerobic bacteria by the serial two-fold dilution method using a multi-inoculating apparatus. Mueller-Hinton agar was generally used for aerobic bacteria, GC medium (Eiken) for fastidious aerobic organisms such as streptococci, Neisseria and Haemophilus species, and GAM agar medium (Nissui) for anaerobic bacteria. The inoculum size was adjusted to 10^6 CFU/ml for streptococci, Neisseria and Haemophilus species, 10^4 for other aerobic bacteria and 10^7 -10^8 for all anaerobic organisms. Amphomycin, ampicillin, chloramphenicol, clindamycin, erthromycin, kanamycin and vancomycin were used as reference antibiotics.

[15] = test system: Clostridium difficile A21675; experiment: MIC, serial two-fold dilution method (anaerobic); format: cell-based; settings: Clostridioides difficile; Clostridium difficile A21675; GAM agar medium; inoculum 10^7-10^8; read-out: minimum inhibitory concentration (MIC)
Protocol: as §1

[16] = test system: Clostridium difficile A21972; experiment: MIC, serial two-fold dilution method (anaerobic); format: cell-based; settings: Clostridioides difficile; Clostridium difficile A21972; GAM agar medium; inoculum 10^7-10^8; read-out: minimum inhibitory concentration (MIC)
Protocol: as §1

[17] = test system: Clostridium septicum A21869; experiment: MIC, serial two-fold dilution method (anaerobic); format: cell-based; settings: Clostridium septicum A21869; GAM agar medium; inoculum 10^7-10^8; read-out: minimum inhibitory concentration (MIC)
Protocol: as §1

[18] = test system: Clostridium cylindrosporum A9562; experiment: MIC, serial two-fold dilution method (anaerobic); format: cell-based; settings: Clostridium cylindrosporum A9562; GAM agar medium; inoculum 10^7-10^8; read-out: minimum inhibitory concentration (MIC)
[19] = test system: Propionibacterium acnes A21933; experiment: MIC, serial two-fold dilution method (anaerobic); format: cell-based; settings: Cutibacterium acnes; Propionibacterium acnes A21933; GAM agar medium; inoculum 10^7-10^8; read-out: minimum inhibitory concentration (MIC)
[20] = test system: Propionibacterium acnes A21953; experiment: MIC, serial two-fold dilution method (anaerobic); format: cell-based; settings: Cutibacterium acnes; Propionibacterium acnes A21953; GAM agar medium; inoculum 10^7-10^8; read-out: minimum inhibitory concentration (MIC)
[21] = test system: Peptostreptococcus intermedius A21881; experiment: MIC, serial two-fold dilution method (anaerobic); format: cell-based; settings: Peptostreptococcus intermedius A21881; GAM agar medium; inoculum 10^7-10^8; read-out: minimum inhibitory concentration (MIC)
[22] = test system: Bacteroides fragilis A20929; experiment: MIC, serial two-fold dilution method (anaerobic); format: cell-based; settings: Bacteroides fragilis A20929; GAM agar medium; inoculum 10^7-10^8; read-out: minimum inhibitory concentration (MIC)
[23] = test system: Bacteroides fragilis A22053; experiment: MIC, serial two-fold dilution method (anaerobic); format: cell-based; settings: Bacteroides fragilis A22053; GAM agar medium; inoculum 10^7-10^8; read-out: minimum inhibitory concentration (MIC)
[24] = test system: Bacteroides ovatus A22400; experiment: MIC, serial two-fold dilution method (anaerobic); format: cell-based; settings: Bacteroides ovatus A22400; GAM agar medium; inoculum 10^7-10^8; read-out: minimum inhibitory concentration (MIC)
[25] = test system: Fusobacterium nucleatum A21906; experiment: MIC, serial two-fold dilution method (anaerobic); format: cell-based; settings: Fusobacterium nucleatum A21906; GAM agar medium; inoculum 10^7-10^8; read-out: minimum inhibitory concentration (MIC)
[26] = test system: Veillonella alcalescens A21914-1; experiment: MIC, serial two-fold dilution method (anaerobic); format: cell-based; settings: Veillonella parvula, A219141; Veillonella alcalescens A21914-1; GAM agar medium; inoculum 10^7-10^8; read-out: minimum inhibitory concentration (MIC)

CC1(C)S[C@@H]2[C@H](NC(=O)[C@H](N)c3ccccc3)C(=O)N2[C@H]1C(=O)O [Ampicillin]
Sensitivity Strain G393-B445 [1]: S
Sensitivity S. aureus 209P [2]: S
MIC [3]: 0.4 µg/mL (≈ 1.14 µM)
MIC [4]: 25 µg/mL (≈ 71.5 µM)
MIC [5]: 0.05 µg/mL (≈ 0.143 µM)
MIC [6]: 3.1 µg/mL (≈ 8.87 µM)
MIC [7]: 25 µg/mL (≈ 71.5 µM)
MIC [8]: 0.025 µg/mL (≈ 0.0715 µM)
MIC [9]: 0.1 µg/mL (≈ 0.286 µM)
MIC [10]: 0.013 µg/mL (≈ 0.0372 µM)
MIC [11]: 0.4 µg/mL (≈ 1.14 µM)
MIC [12]: 0.4 µg/mL (≈ 1.14 µM)
MIC [13]: 0.8 µg/mL (≈ 2.29 µM)
MIC [14]: 0.4 µg/mL (≈ 1.14 µM)
MIC [15]: 1.6 µg/mL (≈ 4.58 µM)
MIC [16]: 0.2 µg/mL (≈ 0.572 µM)
MIC [17]: 0.8 µg/mL (≈ 2.29 µM)
MIC [18]: 0.8 µg/mL (≈ 2.29 µM)
MIC [19]: 0.2 µg/mL (≈ 0.572 µM)
MIC [20]: < 0.0063 µg/mL
MIC [21]: 0.1 µg/mL (≈ 0.286 µM)
MIC [22]: 0.8 µg/mL (≈ 2.29 µM)
MIC [23]: 6.3 µg/mL (≈ 18 µM)
MIC [24]: 25 µg/mL (≈ 71.5 µM)
MIC [25]: 12.5 µg/mL (≈ 35.8 µM)
MIC [26]: 0.025 µg/mL (≈ 0.0715 µM)
